Assay results: patent US20100222285A1, “METHOD OF CONTROLLING THE PROLIFERATION OF VASCULAR ENDOTHELIAL CELLS AND INHIBITING LUMEN FORMATION” (Rare Sugar Production Technical Research Laboratories, LLC, priority 2004, published 2010)
“Also recorded” adds a separate entry of the source. Where two headings read alike, the source gives them in different places.

Legend:
[1] = tested on: human endothelial cells and fibroblasts; assay: Experiment of luminal formation: concurrent culture, CD31 staining, area of the lumen; assay type: cell-based; conditions: for effect on the luminal formation: Example 1, 0.1-20 mM, 10 days; for effect on the luminal formation of HUVEC: Example 2 (36 species), incubation for 10 days; for inhibition at 20000 µM / inhibition at 1000 µM / inhibition at 2500 µM: Homo sapiens; for inhibition at 20000 µM: 20 mM; for antagonism of the luminal formation inhibitory effect by D-glucose: co-existence of 20 mM D-glucose; for inhibition of the acceleration of luminal formation by VEGF: with VEGF; for inhibition at 1000 µM: 1 mM; for inhibition at 2500 µM: 2.5 mM
Experimental: Using a concurrent culture system of human endothelial cells and fibroblasts planted on a 24-well plate (Kurabo Co., Osaka, Japan), the culture medium was replaced by culture media containing a variety of additives at the early stage of luminal formation. Every 3 days, the medium was exchanged with the additive; 10 day after incubation, the endothelial cell only was stained by using mouse anti-human CD31 antibody (Kurabo Co., Osaka, Japan), goat anti-mouse IgG AlkP Conjugate (Kurabo Co., Osaka, Japan), and BCPI (5-bromo-4-chloro-3-indolyl phosphate) (Kurabo Co., Osaka, Japan) to photograph. The visualized area of the lumen was measured by means of NIH image software.

[2] = tested on: Human umbilical cord vascular endothelial cells (HUVEC); assay: Experiment of growth: HUVEC cell number by WST-8 after 48 hrs; assay type: cell-based; conditions: for inhibition at 20000 µM: Homo sapiens, HUVEC, 20 mM, read-out: inhibition of growth to the control group; for antagonism of the growth inhibitory effect by D-glucose: co-existence of 20 mM D-glucose
Experimental: Human umbilical cord vascular endothelial cells (HUVEC) were purchased as primary cultured cells from KURABO (Kurabo Co., Osaka, Japan) and the cells up to P8 were used in experiments. The cells were inoculated on a 96-well plate at a rate of 3000 cells/well, and allowed to stand in Humedia EG2 (Kurabo) overnight (37° C., 5% CO2). Next morning, the medium was replaced by 90 μl of 2% FBS-containing Humedia EB2 (Kurabo), to which was then added 10 μl of additive, and after a lapse of 48 hrs the number of cells was counted. No medium was exchanged during this period. In counting, a tetrazolium salt WST-8 was added to each well (0.5 mM), and after 2 hrs the absorbance was measured at 450 nm. The tetrazolium salt added was reduced with an intracellular dehydrogenase to yield formazan depending on the number of cells in the well. In advance, the absorbance at 450 nm was confirmed to show a linearity within the range of 500 to 12000 cells in the well.

[3] = cited from earlier work; for Ald type (%): aldehyde structure; for Fra α (%): furanose α-anomer; for Fra β (%): furanose β-anomer; for Pira β (%): pyranose β-anomer; for Pira α (%): pyranose α-anomer
[4] = Example 2 (36 species), 48 hours

Structure (SMILES) | effect on the luminal formation [1] | effect on the luminal formation of HUVEC [1] | antagonism of the luminal formation inhibitory effect by D-glucose [1] | effect on the growth of HUVEC ([2]; Example 1, 0.1-20 mM, 48 hrs) | effect on the growth of HUVEC [2, 4] | Pira β (%) [3] [%] | further results
O=C[C@H](O)C[C@H](O)[C@H](O)CO [3DG, 3-deoxy-D-glucose] | effect was confirmed | inhibitory effect was observed | no apparent effect | effect was confirmed | inhibitory effect was observed | – | effect on the luminal formation ([1]; listed as 3-deoxy-D-glucose): inhibit both; inhibition at 20000 µM [1]: 50 to 80%; effect on the growth of HUVEC ([2]; Example 1, 0.1-20 mM, 48 hrs, listed as 3-deoxy-D-glucose): inhibit both; inhibition at 20000 µM ([2]; 48 hrs): 40 to 80%; antagonism of the growth inhibitory effect by D-glucose [2]: antagonized
O=C[C@@H](O)[C@H](O)[C@H](O)[C@H](O)CO [ALT, D-altrose] | effect was confirmed | inhibitory effect was observed | no apparent effect | no influence | – | – | inhibition at 20000 µM [1]: 50 to 80%; inhibition of the acceleration of luminal formation by VEGF [1]: inhibit the acceleration by VEGF
O=C[C@H](O)[C@H](O)[C@H](O)[C@H](O)CO [Allose] | – | – | – | – | – | 70 | Ald type (%) [3]: 1.38%; Fra α (%) [3]: 5%; Fra β (%) [3]: 7%
O=C[C@@H](O)[C@H](O)[C@H](O)CO [Arabinose] | – | – | – | – | – | 34 | Ald type (%) [3]: 0.28%; C1/1C ([3]; chair form of pyranose α): 1C; C1/1C ([3]; chair form of pyranose β): mix; Fra α + Fra β total (%) ([3]; furanose, total of α and β): total 3%
O=CC[C@H](O)[C@H](O)CO [DRI, 2-deoxy-D-ribose] | effect was confirmed | inhibitory effect was observed; also recorded: strong action | no apparent effect | effect was confirmed | inhibitory effect was observed | – | inhibition at 1000 µM [1]: ~20%; inhibition at 2500 µM [1]: > 95%; inhibition of the acceleration of luminal formation by VEGF [1]: inhibit the acceleration by VEGF; inhibition at 20000 µM ([2]; 48 hrs): 40 to 80%; antagonism of the growth inhibitory effect by D-glucose [2]: no antagonism
O=C(CO)[C@H](O)[C@@H](O)[C@H](O)CO [DSO, D-sorbose] | – | – | – | – | no remarkable effect | – | –
O=C(CO)[C@@H](O)[C@H](O)[C@H](O)CO [FRU, D-fructose] | – | – | – | – | no remarkable effect | – | –
O=C(CO)[C@@H](O)[C@H](O)[C@H](O)CO [Fructose] | – | – | – | – | – | 72 | C1/1C ([3]; chair form of pyranose α): mix; C1/1C ([3]; chair form of pyranose β): 1C; Pira α (%) [3]: 28%
O=C[C@H](O)[C@H](O)[C@@H](O)[C@H](O)CO [GUL, D-gulose] | effect was confirmed | inhibitory effect was observed | no apparent effect | no influence | – | – | inhibition at 20000 µM [1]: 50 to 80%; inhibition of the acceleration of luminal formation by VEGF [1]: inhibit the acceleration by VEGF
O=C[C@H](O)[C@@H](O)[C@@H](O)[C@H](O)CO [Galactose] | – | – | – | – | – | 64 | Ald type (%) [3]: 0.082%; Fra α (%) [3]: trace; Fra β (%) [3]: trace
O=C[C@@H](O)[C@H](O)[C@@H](O)[C@H](O)CO [Idose] | – | – | – | – | – | 37 | C1/1C ([3]; chair form of pyranose α): mix; Fra α (%) [3]: 16%; Fra β (%) [3]: 16%
O=C[C@@H](O)[C@@H](O)[C@@H](O)[C@@H](O)CO [LAL, L-allose] | effect was confirmed | inhibitory effect was observed | antagonized | no influence | – | – | inhibition at 20000 µM [1]: 50 to 80%
O=CC[C@@H](O)[C@@H](O)CO [LDR, 2-deoxy-L-ribose] | effect was confirmed | inhibitory effect was observed; also recorded: strong action | no apparent effect | effect was confirmed | inhibitory effect was observed | – | inhibition at 1000 µM [1]: ~20%; inhibition at 2500 µM [1]: > 95%; inhibition of the acceleration of luminal formation by VEGF [1]: inhibit the acceleration by VEGF; inhibition at 20000 µM ([2]; 48 hrs): 40 to 80%; antagonism of the growth inhibitory effect by D-glucose [2]: no antagonism
O=C(CO)[C@H](O)[C@@H](O)[C@@H](O)CO [LFR, L-fructose] | – | – | – | – | no remarkable effect | – | –
O=C(CO)[C@@H](O)[C@@H](O)[C@@H](O)CO [LPS, L-psicose] | – | – | – | – | no remarkable effect | – | –
O=C[C@@H](O)[C@@H](O)[C@@H](O)CO [LRI, L-ribose] | effect was confirmed | inhibitory effect was observed | no apparent effect | no influence | – | – | inhibition at 20000 µM [1]: 50 to 80%; inhibition of the acceleration of luminal formation by VEGF [1]: inhibit the acceleration by VEGF
O=C(CO)[C@H](O)[C@H](O)[C@@H](O)CO [LTA, L-tagatose] | – | – | – | – | no remarkable effect | – | –
O=C[C@@H](O)[C@@H](O)[C@H](O)CO [Lyxose] | – | – | – | – | – | 28 | Ald type (%) [3]: 0.4%; C1/1C ([3]; chair form of pyranose α): mix
O=C(CO)[C@H](O)[C@H](O)[C@H](O)CO [Psicose] | – | – | – | – | – | 67 | C1/1C ([3]; chair form of pyranose β): 1C; Pira α (%) [3]: 33%
O=C[C@H](O)[C@H](O)[C@H](O)CO [RIB, D-ribose] | effect was confirmed | inhibitory effect was observed | no apparent effect | no influence | – | – | inhibition at 20000 µM [1]: 50 to 80%; inhibition of the acceleration of luminal formation by VEGF [1]: inhibit the acceleration by VEGF
O=C[C@H](O)[C@H](O)[C@H](O)CO [Ribose] | – | – | – | – | – | 56 | Ald type (%) [3]: 8.5%; C1/1C ([3]; chair form of pyranose α): mix; C1/1C ([3]; chair form of pyranose β): mix; Fra α (%) [3]: 6%; Fra β (%) [3]: 18%
O=C(CO)[C@@H](O)[C@H](O)[C@@H](O)CO [SOR, L-sorbose] | no influence | – | – | effect was confirmed; also recorded: inhibitory effect for growth | growth inhibition; also recorded: inhibitory effect was observed | – | inhibition at 20000 µM ([2]; 48 hrs): 40 to 80%; antagonism of the growth inhibitory effect by D-glucose [2]: no antagonism
O=C(CO)[C@@H](O)[C@@H](O)[C@H](O)CO [TAG, D-tagatose] | – | – | – | – | no remarkable effect | – | –
O=C[C@@H](O)[C@@H](O)[C@@H](O)[C@H](O)CO [TAO, D-talose] | effect was confirmed | inhibitory effect was observed | – | no influence | – | – | inhibition at 20000 µM [1]: 50 to 80%
O=C(CO)[C@@H](O)[C@@H](O)[C@H](O)CO [Tagatose] | – | – | – | – | – | 11 | Pira α (%) [3]: 89%
O=C[C@H](O)[C@@H](O)[C@H](O)CO [Xylose] | – | – | – | – | – | 63 | Ald type (%) [3]: 0.17%
